Experimental data taken from US9279806B2, “Water-soluble AIE luminogens for monitoring and retardation of fibrillation of amyloid proteins” (THE HONG KONG UNIVERSITY OF SCIENCE AND TECHNOLOGY, priority 2005, dated 2016).

What was measured:
HG21 DNA = test: CD spectra: G-quadruplex induction by TPE derivatives; assay type: biochemical; conditions: 9 μM DNA, 4.5 μM TPE derivative, Tris-HCl pH 7.5, 25 °C
Method: [TPE]=4.5 μM; [HG21]=9 μM and [K^+]=0.5 M.
CD spectral profiles of 9 μM DNA in 5 mM Tris-HCl buffer solutions (pH 7.5) incubated under 25° C. with four different TPE derivatives at 4.5 μM or with 0.5M K^+ ions are studied (FIG. 77). TPE derivatives 1-4 are TTAPE (Example 6), TPE-2 (chemical structure is not shown herein), TPE-3 (chemical structure is not shown herein) and TPE-C2N+ (Example 3), respectively. […] On the other hand, DNA incubated with TTAPE or the known quadruplex inducer; K^+ ions have very similar spectral profiles, while the ellipticities of DNA/TTAPE are somehow weaker than DNA/K^+.

Solubility = assay type: physicochemical
H21 = test: Job plots for the binding of TTAPE to H21
Method: The sum of TTAPE and DNA concentrations was kept at 10 μM. Fluorescent intensities for the bound TTAPE at 470 nm are normalized to the maximum increase in each case. The y-axis represents the difference in PL intensity for mole fraction of ligand (χL) in DNA. Intercept mole fraction values were determined from least-squares fits to the linear data portions, giving yjni values of 0.50 (1:1 stoichiometry) for H21 in K-Tris, 0.67 […] for H21 in Na-Tris, and 0.75 […] for H21 in Tris-HCl, respectively.

G1 = test: PAGE assay of G1, gel poststaining; design: species or system human; conditions: gel poststained with 10 μM TTAPE for 5 min
Method: The FL “turn-on” switching of TTAPE by binding to G1 strand inspires us to check whether it can be used as a DNA marker in the PAGE assay. Electrophoresis assay of G1 was performed on a Hoefer miniVE system in 1xTBE buffer under nondenaturing conditions using a 20% native poly(acrylamide) gel at 100V for 3 h at […]. An AlphaDigiDoc™ system with a DE-500 MultiImage™ II light cabinet and an ML-26 UV transilluminator (Alpha Innotech) was used for data collection and analysis. The gel was poststained with a 10 μM TTAPE solution for 5 min at room temperature, rinsed with distilled water, and photographed under UV light at 290-330 nm by the gel documentation system. EB was used to poststain the gel in parallel for comparison. Concentrations of G1 in the range of 0.5-10.0 μM were used to check the visualizability of the dye-stained DNA in the PAGE assay.
After running PAGE of G1 in a Tris-borate-ethylene-diaminetetraacetic acid (TBE) buffer, the gel is stained by a TTAPE solution for 5 min. […] Ethidium bromide (EB) is a widely used visualization agent for PAGE assay. […] The G1 bands are not visualized until the gel has been stained by EB for as long as 30 min. Band visualization by EB is usually realized by its intercalation into the hydrophobic region of DNA, which makes the staining a slow process. […]

Solubility in water (Solubility): completely soluble in water
Job plot intercept mole fraction (H21; H21 in K-Tris buffer pH 7.50): 0.50
Job plot intercept mole fraction (H21; H21 in Na-Tris buffer pH 7.50): 0.67
Job plot intercept mole fraction (H21; H21 in Tris-HCl buffer pH 7.50): 0.75
Structure (SMILES): CC[N+](CC)(CC)CCOc1ccc(C(=C(c2ccc(OCC[N+](CC)(CC)CC)cc2)c2ccc(OCC[N+](CC)(CC)CC)cc2)c2ccc(OCC[N+](CC)(CC)CC)cc2)cc1.[Br-].[Br-].[Br-].[Br-] [TTAPE, 1,1,2,2-tetrakis[4-(2-triethylammonioethoxy)phenyl]ethene tetrabromide]
G-quadruplex induction (CD spectral profile) (HG21 DNA): acts as an internal quadruplex inducer under 25 °C
Detectable G1 concentration (sensitivity test) (G1): 0.5 µM
